Where two headings read alike, the source gives them in different places.
How the values were obtained:
[1] = test system: human pancreatic adenocarcinoma cell line Capan-1; test: Apoptosis by DAPI labeling and fluorescence microscope; format: cell-based; settings: positive control, 10 μg/mL, 24 h
Experimental: The studies of possible induction of apoptosis by the PCI were done with the human pancreatic adenocarcinoma cell line Capan-1. The detailed procedure that was employed is as follows:
1. 5×10^5 cells were seed in the chambers/slides and were cultured for 3 o 4 days (until the moment in which, through microscope observation, they presented 75% of confluence). The cells were cultured in DMEM+10% FBS.
2. […] A positive control was added, cysplatinum, at a concentration of 10 μg/mL (a drug which induces apoptosis in various tumor cell lines, Borner, M. M., et al. (1995) Cancer Res., 55: 2122-2128. The incubation period was 24 h.
3. The medium was removed after incubation and the chamber was washed with 2 mL of PBS.
5. Cells were fixed with 2 mL of 2% formaldehyde for 20 min at 4° C.
6. The plates were washed again with 2 mL of PBS for 5 min at room temperature.
7. Cell membranes were permeabilized with 0.25% Triton ×100 in PBS for 5 min at 4° C.
8. Washed with PBS for 5 min at room temperature.
9. The cells were labeled with DAPI at a final concentration of 2 μg/mL for 50 min in darkness at room temperature.
10. The preparation was fitted with the fluoroprep medium and it was examined through the fluorescence microscope.
% apoptosis=(number of apoptotic cells/total number of cells)×100

[2] = test system: human pancreatic adenocarcinoma cell line Panc-1; format: cell-based; settings: SFM, 72 h
Experimental: The tests that were carried out growing in free bovine fetal serum medium were very similar to those used in the line Capan-1 described in Section 4.B.2.b. The protocol employed is as follows:
1. A culture plate with 96 wells, in 42 of which 5,000 cells were seed per well. The cells were placed in full medium (RPMI+10%FBS).
2. After 48 h, after the cells had adhered to the surface of the well and they had divided as well, the medium was drained from the wells and to eliminate the rest of the serum, 200 μL of PBS were added to each well.
3. The PBS was removed and 200 μL of RPMI-FBS were added.
4. After 48 h, the medium was removed and the following treatments were applied:
(§1) In 6 wells (control): 200 μL of serum-free medium (SFM) were added.
In 6 wells, 200 μL of SFM plus the indicated concentration of one of the growth factors and wtPCI at a final concentration of 50 μg/mL were added.
In 6 wells, 200 μL of SFM plus the indicated concentration of one of the growth factors and PCIdelYVG at a final concentration of 46 μg/mL were added.
In 6 wells, 200 μL of SFM plus the indicated concentration of one of the growth factors and tail at a final concentration of 6.4 μg/mL were added.
In 6 wells, 200 μL of SFM plus the indicated concentration of one of the growth factors and wtPCI at a final concentration of 50 μg/mL combined with tail at a final concentration of 6.4 μg/mL were added.
In 6 wells, 200 μL of SFM plus the indicated concentration of one of the growth factors and PCIdelYVG at a final concentration of 46 μg/mL combined with tail at a final concentration of 6.4 μg/mL were added.
The cells were kept in an incubator at 37° C., 87% of relative humidity and 10% of CO2.
5. After 72 h, the cell growth per well was evaluated using the method detailed in the protocol of Section 4.B.2.a.

[3] = test system: human pancreatic adenocarcinoma cell line Capan-1; format: cell-based; settings: SFM, 72 h
Experimental: Other kinds of tests were also carried out, the cells growing in serum-free medium as well; these were studies at short periods of time, 72 h, and of competitiveness with a growth factor plus wtPCI, PCIdelYVG or tail. […] The protocol employed was as follows:
1. In a culture plate of 96 wells, in 42 of which 5,000 cells per well were seed. The cells were placed in full medium (DMEM+10%FBS).
2. After 72 h, once the adhesion of the cells to the surface of the well had taken place, as well as their division, the medium was removed from the wells and to eliminate the remainder of the serum, 200 μL of PBS were added to each well.
3. The PBS was removed and 200 μL of DMEM-FBS were added.
4. After 24 h, the medium was removed and the following treatments were applied:
as §1
200 μL of SFM plus the indicated concentration of one of the growth factors and wtPCI were added in 6 wells at a final concentration of 50 μg/mL.
In 6 wells, 200 μL of SFM plus the indicated concentration of one of the growth factors and PCIdelYVG were added at a final concentration of 46 μg/mL. […]
4. Cells were kept in an incubator at 37° C., 87% of relative humidity and 10% of CO2.
5. After 72 h, the cellular growth per well was evaluated using the method detailed in the protocol of Section 4.B.2.a.

[4] = test system: human pancreatic adenocarcinoma cell line Panc-1; format: cell-based; settings: SFM, 72 h; remark: listed apart in the source
carboxypeptidase = target: T1, carboxypeptidase (Bos taurus, UniProt P00730); test: Carboxypeptidase inhibiting effect; format: biochemical
T1 sequence (P00730 111-419): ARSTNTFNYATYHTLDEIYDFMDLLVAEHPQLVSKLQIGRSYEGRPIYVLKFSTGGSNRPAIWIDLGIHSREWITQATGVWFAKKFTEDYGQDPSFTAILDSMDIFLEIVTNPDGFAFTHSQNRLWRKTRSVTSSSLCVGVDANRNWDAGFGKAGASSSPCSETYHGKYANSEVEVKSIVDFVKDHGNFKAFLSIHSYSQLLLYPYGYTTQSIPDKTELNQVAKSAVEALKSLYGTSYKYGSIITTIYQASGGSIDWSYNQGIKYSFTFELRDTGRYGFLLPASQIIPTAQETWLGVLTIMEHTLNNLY
Experimental: All the buffers employed in HPLC and FPLC are prepared employing Mono-Q water and are filtered through membranes of 0.22 μm and degassed immediately before use. The HPLC, as well as the FPLC, are done at room temperature. The process of purification is done by determining the global concentration of proteins after each step using the Bradford method; the concentration of recombinant PCI is evaluated by measuring its inhibitory effect of CPA using appropriate blanks; or, in the case of PCI mutants with little or zero carboxypeptidase activity, by ELISA with rabbit polyclonal antibodies against PCI.
To determine whether the inhibiting effect on cellular growth of the PCI is related to its carboxypeptidase inhibiting effect or with its specific knotin topology, tests of cellular inhibition with a mutant form were carried out. Concretely, the deletion of the three C-terminal amino acids was designed resulting in the form PCIdelY37V38G39 (or PCIdelYVG). This form was designed and constructed because it keeps the structure and the topology of wild PCI. This is inferred from the fact that it presents a similar chromatographic behaviour to that of the wild form and that it can be detected by antibodies antiwtPCI. Also by means of computer simulation (by molecular dynamics using the GROMOS programme) it presented a similar behaviour to the wild form after 300 ps of dynamics.

[5] = test system: human pancreatic adenocarcinoma cell line Capan-1; settings: serum-free medium, 16 days
Experimental: Two kinds of tests were carried out; the first one is the treatment of cells of the human pancreatic adenocarcinoma cell line Capan-1 with wtPCI and tail added to the culture medium in absence of serum.
In a culture plate with 96 wells, 5,000 cells were seed per well, in 24 of them. The cells were placed in full medium (DMEM+10%FBS).
In 6 wells (control): 200 μL of serum-free medium (DMEM-FBS) and free of tail were added.
200 μL of serum-free medium with 50 μg/mL of native PCI were added.
In 6 wells, 200 μL of serum-free medium with 0.128 μg of tail/mL were added.
In 6 wells, serum-free medium with 6.4 μg of tail/mL was added.
The medium contained in the wells was changed every 3-4 days. The old medium was sucked out using a Pasteur pipette.
After 16 days, the cell growth per well was evaluated according to the method detailed in the protocol of Section 4.B.2.a.

Panc-1 cells = test: Internalization studies by means of fluorescence (RITC labeling), Panc-1; format: cell-based, human; settings: accumulation around the nucleus
Experimental: In fluorescence studies, the possible internalization of PCI, labeled with a fluorophore, by Capan-1 and Panc-1 cell lines was followed by microscope observation.
In the incorporation studies of the RITC-PCI, the protocol of Billings, P. C. et al. (1989) Carcinogenesis, 10: 687-691, slightly modified, was followed:
1. 200,000 cells of the cell line to be studied were placed in culture chambers/slides and were left there to grow for 48 h.
2. The medium of the cells growing in exponential phase was changed and 20 or 50 μg/mL of RITC-PCI were added to the new medium, keeping it in the medium for a variable incubation time ranging from 1 minute to 4 h inside the incubator.
3. The medium was retired after the incubation and the monolayer of the cells was washed with PBS for 10 min in darkness.
4. The cells were fixed with 350 μl of a solution 50% methanol—50% acetone for 8 min at 4° C. in a dark and humid chamber.
5. The cells were washed again with PBS for 10 min in darkness.
6. The preparations were dried with absorbing paper being very careful not to touch the cells. The preparations were fitted with PBS: Glycerol (1:1) and were sealed with nail polish.
The labeling protocol was exactly the same as that of the wild PCI, as described in Section 4.F.1.b. The studies of incorporation of the labeled mutant were carried out as described in Section 4.F.1.c.

[6] = test system: human pancreatic adenocarcinoma cell line Panc-1; test: Proliferation test with tetrazolium salts, Panc-1 in medium with serum, 10 days; format: cell-based
Experimental: It was performed the same kind of test which had been carried out for the Capan-1 cell line but with Panc-1, another human pancreatic adenocarcinoma cell line. We are referring to a human pancreatic adenocarcinoma ATCC nr. CRL 1469, established by Lieber, M. et al. (1975) In. J. Cancer, 15: 741-747. Of ductal origin, it is not highly differentiated.
As for the Capan-1 cell line, two types of experiments were carried out with and without bovine fetal serum. The protocol followed for the test, growing in RPMI plus bovine fetal serum, was the same as that used with Capan-1 cell line but with small variations, given the difference in the duplication times between the two lines. The tests were carried out with the native PCI (wtPCI) and with the mutant PCI (PCIdelYVG). The protocol is detailed as follows:
1. In a culture plate with 96 wells, 2,000 cells were seed in 30 wells for the tests with wtPCI and in 36 for the tests with PCIdelYVG. From these 30 or 36:
In 6 wells (control), 200 μL of full medium (RPMI+10%FBS) without wtPCI or PCIdelYVG/mL were added. […]
2. The cells were kept in an incubator at 37° C., 87% of relative humidity and 10% of CO2. The old medium was sucked out with a Pasteur pipette. Medium free of wtPCI or PCIdelYVG was added to the control wells and to the others a medium was added with identical concentration of wtPCI or PCIdelYVG.
3. After 10 days, the cell growth was evaluated per well, according to the method detailed in the protocol of Section 4.B.2.a.

[7] = Insulina 5 mg/mL + 6.4 mg/mL tail
[8] = EGF 10 ng/mL + 46 mg/mL PCIdelYVG
[9] = Insulin 5 mg/mL + 46 mg/mL PCIdelYVG

N.N.[Cl][Pt][Cl] [cysplatinum, reference compound]
% Apoptosis [1]: 5.19%

EGF: epidermic growth factor [reference compound]
Growth (Percentage in relation to the average of the controls) ([2]; EGF 10 ng/mL alone): 63.52% | inhibition in relation to the control situation ([2]; EGF alone, in the tested concentration (10 ng/mL)): 36% | Growth (Percentage in relation to the average of the controls) ([3]; EGF 10 ng/mL alone): 106.66% | growth in relation to the control situation ([3]; EGF alone, at the tested concentration (10 ng/mL)): no differences in relation to the control situation

H-GPYVG-OH [tail, H-Gly-Pro-Tyr-Val-Gly-OH]
Growth (Percentage in relation to the average of the controls) ([4]; EGF 10 ng/mL + 6.4 mg/mL tail): 16.23% | Growth (Percentage in relation to the average of the controls) [4, 7]: 24.84% | carboxypeptidase inhibitory activity (carboxypeptidase): lacks carboxypeptidase inhibitory activity | Growth (Percentage in relation to the average of the controls) ([5]; 0.128 mg/mL tail): 81.95% | Growth (Percentage in relation to the average of the controls) ([5]; 6.4 mg/mL tail): 77% | Growth (Percentage in relation to the average of the controls) ([3]; EGF 10 ng/mL + 6.4 mg/mL tail): 28.33% | Growth (Percentage in relation to the average of the controls) [3, 7]: 52.58%

IGF-1: growth factor 1 of the insulin type [reference compound]
stimulation in relation to control ([2]; IGF-1 alone (20 ng/mL)): 26% | stimulation in relation to the control ([3]; IGF-1 alone (20 ng/mL)): 58%

Insulin: growth factor used to stimulate proliferation [reference compound]
Growth (Percentage in relation to the average of the controls) ([2]; Insulin 5 mg/mL alone): 193.47% | stimulation in relation to control ([2]; insulin alone (5 μg/mL)): 93% | Growth (Percentage in relation to the average of the controls) ([3]; Insulin 5 mg/mL alone): 292.86% | stimulation in relation to the control ([3]; insulin alone (5 μg/mL)): 193%

PCIdelYVG: recombinant PCI mutant with deletion of the three C-terminal amino acids Tyr-Val-Gly (EQHADPICNKPCKTHDDCSGAWFCQACWNSARTCGP; Potato; (1)..(39) Isoform IIa of the potato carboxypeptidase inhibitor)
Growth (Percentage in relation to the average of the controls) [4, 8]: 5.53% | Growth (Percentage in relation to the average of the controls) [4, 9]: 21.41% | incorporation of RITC-labeled mutant by the cells (Panc-1 cells): is incorporated by the cells | Ki (carboxypeptidase): micromolar level | decrease of the inhibitory capacity (carboxypeptidase; compared with wild PCI): 3 orders of magnitude | Growth (Percentage in relation to the average of the controls) [3, 8]: 40.83% | Growth (Percentage in relation to the average of the controls) [3, 9]: 44.60% | inhibition of the growth ([6]; 46 μg/mL concentration): 15% | Growth (Percentage in relation to the average of the controls) ([6]; 0.092 mg/mL PCIdelYVG, RPMI+10%FBS): 112.92% | Growth (Percentage in relation to the average of the controls) ([6]; 0.92 mg/mL PCIdelYVG): 105.43% | Growth (Percentage in relation to the average of the controls) ([6]; 23 mg/mL PCIdelYVG): 94.85% | Growth (Percentage in relation to the average of the controls) ([6]; 46 mg/mL PCIdelYVG): 85.51% | stimulus of the growth ([6]; concentration 0.092 μg/mL): 13%
